According to ChEMBL document CHEMBL1150677, “Novel tetramic acids and pyridone alkaloids, militarinones B, C, and D, from the insect pathogenic fungus Paecilomyces militaris” (J Nat Prod, 2003):
Calls of active or inactive are those of the source. The rule behind the calls is not given here.

Legend:
PC-12 [1] = assay: Cytotoxicity against rat PC12 cells assessed as effect on LDH release at 33 uM after 24 hrs; format: cell-based; settings: pc-12, 24 h
PC-12 [2] = assay: Neuritogenic activity in rat PC12 cells at 100 uM after 16 hrs; format: functional, cell-based
PC-12 [3] = assay: Cytotoxicity against rat PC12 cells assessed as effect on LDH release at 100 uM after 24 hrs; format: cell-based; settings: pc-12, 24 h
PC-12 [4] = assay: Cytotoxicity against rat PC12 cells assessed as effect on LDH release after 24 hrs; format: cell-based; settings: pc-12, 24 h

| SMILES | Activity (PC-12 [1]) | Activity (PC-12 [2]) | Activity (PC-12 [3]) | Activity (PC-12 [4]) |
| --- | --- | --- | --- | --- |
| CC[C@@H](C)C[C@@H](C)/C=C(C)/C=C/C=C/C(=O)c1c(O)c(-c2ccc(O)cc2)c[nH]c1=O (relative stereo) [MILITARINONE B] | 30.7% | inactive | 74% | – |
| CC[C@@H](C)C[C@@H](C)/C=C(C)/C=C/C=C/C(O)=C1\C(=O)NC(C(O)c2ccc(O)cc2)C1=O (relative stereo) [MILITARINONE C] | – | Active | 16.8% | – |
| CC[C@@H](C)C[C@@H](C)/C=C(C)/C=C/C=C/C(O)=C1\C(=O)NC(Cc2ccc(O)cc2)C1=O (relative stereo) [MILITARINONE D] | – | Active | – | Non-toxic |
